Laboratory results taken from patent US12201610B2, “Compositions comprising aticaprant” (Janssen Pharmaceuticals, Inc., priority 2022, dated 2025).

System: subjects with MDD
Test: MADRS total score, adjunctive aticaprant vs placebo in MDD (Example 6)
Conditions: for MADRS LSMeans difference estimate, supplementary analysis of data collected prior to 15 Mar. 2020 (COVID-19): MMRM
[1] = fITT Analysis Set, High anhedonia, Treatment Week 1
[2] = fITT Analysis Set, High anhedonia, Treatment Week 3
[3] = fITT Analysis Set, High anhedonia, Treatment Week 4
[4] = fITT Analysis Set, High anhedonia, Treatment Week 5
[5] = fITT Analysis Set, High anhedonia, Treatment Week 6
[6] = fITT Analysis Set, Low anhedonia, Treatment Week 1
[7] = fITT Analysis Set, Low anhedonia, Treatment Week 3
[8] = fITT Analysis Set, Low anhedonia, Treatment Week 4
[9] = fITT Analysis Set, Low anhedonia, Treatment Week 5
[10] = fITT Analysis Set, Low anhedonia, Treatment Week 6
[11] = fITT, Treatment Week 1, 10 mg adjunctive to SSRI/SNRI
[12] = fITT, Treatment Week 3, 10 mg adjunctive to SSRI/SNRI
[13] = fITT, Treatment Week 4, 10 mg adjunctive to SSRI/SNRI
[14] = fITT, Treatment Week 5, 10 mg adjunctive to SSRI/SNRI
[15] = fITT, Treatment Week 6, 10 mg adjunctive to SSRI/SNRI
[16] = fITT, Treatment Week 6, high anhedonia level
[17] = fITT, Treatment Week 6, low anhedonia level

## Cc1cc(C)cc(C2CCCN2Cc2ccc(Oc3ccc(C(N)=O)cc3F)cc2)c1 (stereo not shown) [aticaprant, 3-fluoro-4-4-2-(3,5-dimethylphenyl)pyrrolidin-1-yl-methylphenoxybenzamide]
eITT, Treatment Week 6, 10 mg adjunctive to SSRI/SNRI
  MADRS Total Score Mean Change to Placebo (SD pooled): −2.0 (8.49)
eITT, Treatment Week 6, high anhedonia level (SHAPS total score ≥38 at treatment baseline)
  MADRS total score change, difference between aticaprant and placebo: −3.4
eITT, Treatment Week 6, high anhedonia level (SHAPS ≥38)
  MADRS total score observed effect size: 0.38
eITT, Treatment Week 6, low anhedonia level (20≤ SHAPS <38)
  MADRS total score observed effect size: 0.11
eITT, Treatment Week 6, low anhedonia level (20≤ baseline SHAPS total score <38)
  MADRS total score change, difference between aticaprant and placebo: −0.9
eITT, Treatment Week 6, vs placebo, negative favors aticaprant
  MADRS Total Score Effect size: 0.23
eITT, Treatment Week 6, vs placebo, negative favors aticaprant, listed as Aticaprant
  MADRS Total Score Effect size: −0.23
eITT, vs placebo
  MADRS LSMeans difference estimate, supplementary analysis of data collected prior to 15 Mar. 2020 (COVID-19): −3.0
[1]
  MADRS Total Score Effect size: −0.45
  MADRS Total Score Mean Change from Baseline (SD): −4.4 (5.04)
  MADRS Total Score Mean Change to Placebo (SD pooled): −2.0 (4.38)
[2]
  MADRS Total Score Effect size: −0.54
  MADRS Total Score Mean Change from Baseline (SD): −6.9 (6.66)
  MADRS Total Score Mean Change to Placebo (SD pooled): −3.8 (6.94)
[3]
  MADRS Total Score Effect size: −0.50
  MADRS Total Score Mean Change from Baseline (SD): −8.6 (7.32)
  MADRS Total Score Mean Change to Placebo (SD pooled): −3.8 (7.56)
[4]
  MADRS Total Score Effect size: −0.51
  MADRS Total Score Mean Change from Baseline (SD): −10.2 (8.04)
  MADRS Total Score Mean Change to Placebo (SD pooled): −4.0 (7.87)
[5]
  MADRS Total Score Effect size: −0.51
  MADRS Total Score Mean Change from Baseline (SD): −11.3 (8.69)
  MADRS Total Score Mean Change to Placebo (SD pooled): −4.6 (9.03)
[6]
  MADRS Total Score Effect size: −0.24
  MADRS Total Score Mean Change from Baseline (SD): −2.4 (4.59)
  MADRS Total Score Mean Change to Placebo (SD pooled): −1.0 (4.39)
[7]
  MADRS Total Score Effect size: −0.08
  MADRS Total Score Mean Change from Baseline (SD): −4.1 (6.67)
  MADRS Total Score Mean Change to Placebo (SD pooled): −0.5 (6.37)
[8]
  MADRS Total Score Effect size: −0.23
  MADRS Total Score Mean Change from Baseline (SD): −6.4 (6.77)
  MADRS Total Score Mean Change to Placebo (SD pooled): −1.5 (6.65)
[9]
  MADRS Total Score Effect size: −0.10
  MADRS Total Score Mean Change from Baseline (SD): −7.3 (6.90)
  MADRS Total Score Mean Change to Placebo (SD pooled): −0.7 (6.86)
[10]
  MADRS Total Score Effect size: −0.29
  MADRS Total Score Mean Change from Baseline (SD): −8.8 (7.48)
  MADRS Total Score Mean Change to Placebo (SD pooled): −2.3 (7.80)
[11]
  MADRS Total Score Change from Baseline Mean (SD): −3.1
  MADRS Total Score Mean (SD): 21.7
  MADRS Total Score Mean Change to Placebo (SD pooled): −1.3 (4.43)
fITT, Treatment Week 1, vs placebo, negative favors aticaprant
  MADRS Total Score Effect size: −0.29
[12]
  MADRS Total Score Change from Baseline Mean (SD): −5.1
  MADRS Total Score Mean (SD): 20.0
  MADRS Total Score Mean Change to Placebo (SD pooled): −1.7 (6.62)
fITT, Treatment Week 3, vs placebo, negative favors aticaprant
  MADRS Total Score Effect size: −0.26
[13]
  MADRS Total Score Change from Baseline Mean (SD): −7.2
  MADRS Total Score Mean (SD): 17.9
  MADRS Total Score Mean Change to Placebo (SD pooled): −2.3 (7.02)
fITT, Treatment Week 4, vs placebo, negative favors aticaprant
  MADRS Total Score Effect size: −0.32
[14]
  MADRS Total Score Change from Baseline Mean (SD): −8.3
  MADRS Total Score Mean (SD): 16.7
  MADRS Total Score Mean Change to Placebo (SD pooled): −1.9 (7.31)
fITT, Treatment Week 5, vs placebo, negative favors aticaprant
  MADRS Total Score Effect size: −0.26
fITT, Treatment Week 6
  percentage of subjects with MADRS remission (MADRS total score ≤10): 31.2%
  percentage of subjects with ≥30% improvement in MADRS total score: 61.8%
  percentage of subjects with ≥50% improvement in MADRS total score: 38.2%
[15]
  MADRS Total Score Mean (SD): 15.9
  MADRS Total Score Mean Change to Placebo (SD pooled): −3.0 (8.31)
[16]
  MADRS total score change, difference between aticaprant and placebo: −4.6
  MADRS total score observed effect size: 0.51
[17]
  MADRS total score change, difference between aticaprant and placebo: −2.3
  MADRS total score observed effect size: 0.29
fITT, Treatment Week 6, vs placebo, negative favors aticaprant
  MADRS Total Score Effect size: 0.36
fITT, Treatment Week 6, vs placebo, negative favors aticaprant, listed as Aticaprant
  MADRS Total Score Effect size: −0.36
fITT, vs placebo
  onset of significant treatment effect favoring aticaprant (MADRS least squares mean change, FIG. 10-B): 3 week
  MADRS LSMeans difference estimate, supplementary analysis of data collected prior to 15 Mar. 2020 (COVID-19): −3.4
